Data on 20 compounds can be found in patent publication US12012417B2, “N-substituted tetrahydrothienopyridine derivatives and uses thereof” (NOVARTIS AG, priority 2018, dated 2024).

Structures can show the parent of a compound that is named as a salt.

Test [1] concerns Dengue 1 virus MY97-10245. Description: High-content imaging cell-based flavivirus immunodetection (HCl-CFI) assay, Dengue 1. To be noted: Dengue virus, A549, 48 h, read-out: Dengue 1 virus MY97-10245 in A549 using HCl [Inhibitor/IC50] Qualified AC50.
Test [2] deals with Dengue 3 virus MY05-34640-WT-C6/36. Description: High-content imaging cell-based flavivirus immunodetection (HCl-CFI) assay, Dengue 3. To be noted: Dengue virus, A549, 48 h, read-out: Dengue 3 virus MY05-34640-WT-C6/36 in A549 using HCl [Inhibitor/IC50] Qualified AC50.
Test [3] deals with Dengue 2 virus MY97-10340. The experiment in a line: High-content imaging cell-based flavivirus immunodetection (HCl-CFI) assay, Dengue 2. The conditions noted are these: Dengue virus, A549, 48 h, read-out: Dengue 2 virus MY97-10340 in A549 using HCl [Inhibitor/IC50] Qualified AC50, A549 cells, MOI 0.3, 48 h, viral E protein expression. As to the method:
High-Content Imaging Cell-Based Flavivirus Immunodetection (HCl-CFI) Assay
A549 cells (7×10^3 cells per well) in a 384-well plate were infected with the DENV-2 (MY97-10340) strain at an MOI of 0.3. The cells were then treated with 3-fold, 10-point serial dilutions of test compound. After 48 h, the cells were fixed with paraformadehyde, and the viral E protein detected with 4G2 antibody labeled with Dylight™ 488 (GenScript). Cell nuclei were stained with Draq5 (Pierce/Thermo), and images were taken on the Opera imaging system (Perkin Elmer). A dose-response curve was plotted to calculate the effective concentration of compound needed to reduce expression of E protein by 50% (EC50) using GraphPad Prism.
The resulted EC50 values are summarized in Table 1 below: ±≥1 μM; 1 μM>++≥0.1 μM; 0.1 μm>+++

The subject of test [4] is Dengue 4 virus MY01-22713. The experiment in a line: High-content imaging cell-based flavivirus immunodetection (HCl-CFI) assay, Dengue 4. The conditions noted are these: Dengue virus, A549, 48 h, read-out: Dengue 4 virus MY01-22713 in A549 using HCl [Inhibitor/IC50] Qualified AC50, A549 cells, 48 h, viral E protein expression.

Regarding `CS(=O)(=O)c1ccc(CC(=O)Nc2sc3c(c2C#N)CCN(Cc2cccc(F)c2)C3)cc1` [Example 119, N-(3-cyano-6-(3-fluorobenzyl)-4,5,6,7-tetrahydrothieno[2,3-c]pyridin-2-yl)-2-(4-(methylsulfonyl)phenyl)acetamide], the EC50 was more than 1 µM in test [1], less than 0.1 µM in test [2], 0.1 to 1 µM in test [3] and less than 0.1 µM in test [4].
As to `CN(C(=O)Cc1ccc(S(N)(=O)=O)cc1)c1sc2c(c1C#N)CN(CC1CCCCC1)C(C)(C)C2` [Example 75, N-(3-cyano-5-(cyclohexylmethyl)-6,6-dimethyl-4,5,6,7-tetrahydrothieno[3,2-c]pyridin-2-yl)-N-methyl-2-(4-sulfamoylphenyl)acetamide], the EC50 in test [1], in test [2], in test [3] and in test [4] was more than 1 µM in each case.
On to `CCOc1cc(CC(=O)Nc2sc3c(c2C#N)CN(CC2CCCCC2)CC3)ccc1S(N)(=O)=O` [Example 12, N-(3-cyano-5-(cyclohexylmethyl)-4,5,6,7-tetrahydrothieno[3,2-c]pyridin-2-yl)-2-(3-ethoxy-4-sulfamoylphenyl)acetamide], for which the EC50 in test [1], in test [2], in test [3] and in test [4] was less than 0.1 µM throughout.
Turning to `COc1cc(CC(=O)Nc2sc3c(c2C#N)C(C)(C)N(Cc2ccccc2)CC3)ccc1S(N)(=O)=O` [Example 49, N-(5-benzyl-3-cyano-4,4-dimethyl-4,5,6,7-tetrahydrothieno[3,2-c]pyridin-2-yl)-2-(3-methoxy-4-sulfamoylphenyl)acetamide], the EC50 was more than 1 µM in test [1], 0.1 to 1 µM in test [2], 0.1 to 1 µM in test [3] and more than 1 µM in test [4].
For `N#Cc1c(NC(=O)Cc2ccc3c(c2)CNS3(=O)=O)sc2c1CN(Cc1cccc(F)c1)CC2` [Example 23, N-(3-cyano-5-(3-fluorobenzyl)-4,5,6,7-tetrahydrothieno[3,2-c]pyridin-2-yl)-2-(1,1-dioxido-2,3-dihydrobenzo[d]isothiazol-5-yl)acetamide], the EC50 is 0.1 to 1 µM in test [1], less than 0.1 µM in test [2], 0.1 to 1 µM in test [3] and 0.1 to 1 µM in test [4].
With `CC1Cc2sc(NC(=O)Cc3ccc(C(N)=O)cc3)c(C#N)c2CN1Cc1cccc(F)c1` (stereo not shown) [Example 58, 4-(2-((3-cyano-5-(3-fluorobenzyl)-6-methyl-4,5,6,7-tetrahydrothieno[3,2-c]pyridin-2-yl)amino)-2-oxoethyl)benzamide], the EC50 in test [1] is 0.1 to 1 µM; in test [2] it was less than 0.1 µM; in test [3], less than 0.1 µM; in test [4], less than 0.1 µM.
`N#Cc1c(NC(=O)Cc2ccc3c(c2)CNC3)sc2c1CN(CC1CCCCC1)CC2` [Example 20, N-(3-cyano-5-(cyclohexylmethyl)-4,5,6,7-tetrahydrothieno[3,2-c]pyridin-2-yl)-2-(isoindolin-5-yl)acetamide]: the EC50 was more than 1 µM in test [1], more than 1 µM in test [2], 0.1 to 1 µM in test [3] and more than 1 µM in test [4].
As for `N#Cc1c(NC(=O)Cc2ccc(S(N)(=O)=O)cc2)sc2c1CN(CC1CCCCC1)CC2` [Example 6, N-(3-cyano-5-(cyclohexylmethyl)-4,5,6,7-tetrahydrothieno[3,2-c]pyridin-2-yl)-2-(4-sulfamoylphenyl)acetamide], the EC50 was 0.1 to 1 µM in test [1], less than 0.1 µM in test [2], less than 0.1 µM in test [3] and less than 0.1 µM in test [4].
Regarding `CC1Cc2sc(NC(=O)Cc3ccc(S(N)(=O)=O)cc3)c(C#N)c2CN1CCc1ccccc1` (stereo not shown) [Example 67, N-(3-cyano-6-methyl-5-phenethyl-4,5,6,7-tetrahydrothieno[3,2-c]pyridin-2-yl)-2-(4-sulfamoylphenyl)acetamide], the EC50 was more than 1 µM in test [1], less than 0.1 µM in test [2], less than 0.1 µM in test [3] and less than 0.1 µM in test [4].
In the case of `Cc1cc(C)cc(CN2CCc3c(sc(NC(=O)Cc4ccc(S(N)(=O)=O)cc4)c3C#N)C2)c1` [Example 110, N-(3-cyano-6-(3,5-dimethylbenzyl)-4,5,6,7-tetrahydrothieno[2,3-c]pyridin-2-yl)-2-(4-sulfamoylphenyl)acetamide], the EC50 in test [1] is 0.1 to 1 µM; in test [2] it was less than 0.1 µM; in test [3], less than 0.1 µM; in test [4], less than 0.1 µM.
For the compound `N#Cc1c(NC(=O)Cc2ccc(S(=O)(=O)C(F)F)cc2)sc2c1CN(CC1CCCCC1)CC2` [Example 11, N-(3-cyano-5-(cyclohexylmethyl)-4,5,6,7-tetrahydrothieno[3,2-c]pyridin-2-yl)-2-(4-((difluoromethyl)sulfonyl)phenyl)acetamide], the EC50 in test [1] was less than 0.1 µM; in test [2] it was less than 0.1 µM; in test [3] it was 0.1 to 1 µM; in test [4] it was less than 0.1 µM.
Take `COc1cc(CC(=O)Nc2sc3c(c2C#N)CN(CC2CC(F)(F)C2)CC3)ccc1S(N)(=O)=O` [Example 50, N-(3-cyano-5-((3,3-difluorocyclobutyl)methyl)-4,5,6,7-tetrahydrothieno[3,2-c]pyridin-2-yl)-2-(3-methoxy-4-sulfamoylphenyl)acetamide]: the EC50 in test [1], in test [2], in test [3] and in test [4] was 0.1 to 1 µM throughout.
As to `CC1(C)CS(=O)(=O)c2ccc(CC(=O)Nc3sc4c(c3C#N)CN(Cc3cccc(F)c3)C(C)(C)C4)cc21` [Example 80, N-(3-cyano-5-(3-fluorobenzyl)-6,6-dimethyl-4,5,6,7-tetrahydrothieno[3,2-c]pyridin-2-yl)-2-(3,3-dimethyl-1,1-dioxido-2,3-dihydrobenzo[b]thiophen-5-yl)acetamide], the EC50 in test [1] was 0.1 to 1 µM; in test [2], less than 0.1 µM; in test [3], less than 0.1 µM; in test [4] it was less than 0.1 µM.
In the case of `N#Cc1c(NC(=O)Cc2ccc(S(N)(=O)=O)cc2)sc2c1CCN(Cc1ccccc1Cl)C2` [Example 114, N-(6-(2-chlorobenzyl)-3-cyano-4,5,6,7-tetrahydrothieno[2,3-c]pyridin-2-yl)-2-(4-sulfamoylphenyl)acetamide], the EC50 in test [1] is 0.1 to 1 µM; in test [2], 0.1 to 1 µM; in test [3], 0.1 to 1 µM; in test [4] it was less than 0.1 µM.
Turning to `N#Cc1c(NC(=O)Cc2ccc(S(N)(=O)=O)cc2)sc2c1CCN(Cc1ccc(F)cc1)C2` [Example 101, N-(3-cyano-6-(4-fluorobenzyl)-4,5,6,7-tetrahydrothieno[2,3-c]pyridin-2-yl)-2-(4-sulfamoylphenyl)acetamide], the EC50 in test [1] was 0.1 to 1 µM; in test [2], 0.1 to 1 µM; in test [3] it was 0.1 to 1 µM; in test [4], less than 0.1 µM.
Consider `N#Cc1c(NC(=O)Cc2ccc3c(c2)CCS3(=O)=O)sc2c1CN(CC1CCCCC1)CC2` [Example 18, N-(3-cyano-5-(cyclohexylmethyl)-4,5,6,7-tetrahydrothieno[3,2-c]pyridin-2-yl)-2-(1,1-dioxido-2,3-dihydrobenzo[b]thiophen-5-yl)acetamide], for which the EC50 in test [1], in test [2], in test [3] and in test [4] was less than 0.1 µM each time.
With `N#Cc1c(NC(=O)Cc2ccc(S(N)(=O)=O)c(F)c2)sc2c1CN(Cc1cccc(F)c1)CC2` [Example 43, N-(3-cyano-5-(3-fluorobenzyl)-4,5,6,7-tetrahydrothieno[3,2-c]pyridin-2-yl)-2-(3-fluoro-4-sulfamoylphenyl)acetamide], the EC50 in test [1] is 0.1 to 1 µM; in test [2] it was less than 0.1 µM; in test [3] it was less than 0.1 µM; in test [4], less than 0.1 µM.
Regarding `COc1cccc(CC(=O)Nc2sc3c(c2C#N)CN(Cc2cccc(F)c2)CC3)c1F` [Example 40, N-(3-cyano-5-(3-fluorobenzyl)-4,5,6,7-tetrahydrothieno[3,2-c]pyridin-2-yl)-2-(2-fluoro-3-methoxyphenyl)acetamide], the EC50 in test [1] is more than 1 µM; in test [2], 0.1 to 1 µM; in test [3], 0.1 to 1 µM; in test [4] it was 0.1 to 1 µM.
With `N#Cc1c(NC(=O)Cc2ccc(S(N)(=O)=O)c(F)c2)sc2c1CN(CC1CCCCC1)CC2` [Example 9, N-(3-cyano-5-(cyclohexylmethyl)-4,5,6,7-tetrahydrothieno[3,2-c]pyridin-2-yl)-2-(3-fluoro-4-sulfamoylphenyl)acetamide], the EC50 in test [1] was 0.1 to 1 µM; in test [2], less than 0.1 µM; in test [3], less than 0.1 µM; in test [4], less than 0.1 µM.
Regarding `COC(=O)c1ccccc1CN1CCc2c(sc(NC(=O)Cc3ccc(S(N)(=O)=O)cc3)c2C#N)C1` [Example 91, Methyl-2-((3-cyano-2-(2-(4-sulfamoylphenyl)acetamido)-4,5-dihydrothieno[2,3-c]pyridin-6-(71-1)-yl)methyl)benzoate hydrochloride], the results for the EC50 in test [2], in test [3] and in test [4] were more than 1 µM, more than 1 µM and 0.1 to 1 µM, respectively.
